This is an account of results in ChEMBL document CHEMBL5252509, “In depth analysis of kinase cross screening data to identify chemical starting points for inhibition of the Nek family of kinases” (Medchemcomm, 2018).

Each structure is given as a SMILES string.

The target in experiment [1] is T1, Serine/threonine-protein kinase Nek3 (Homo sapiens) (UniProt P51956).
T1 sequence (whole entry): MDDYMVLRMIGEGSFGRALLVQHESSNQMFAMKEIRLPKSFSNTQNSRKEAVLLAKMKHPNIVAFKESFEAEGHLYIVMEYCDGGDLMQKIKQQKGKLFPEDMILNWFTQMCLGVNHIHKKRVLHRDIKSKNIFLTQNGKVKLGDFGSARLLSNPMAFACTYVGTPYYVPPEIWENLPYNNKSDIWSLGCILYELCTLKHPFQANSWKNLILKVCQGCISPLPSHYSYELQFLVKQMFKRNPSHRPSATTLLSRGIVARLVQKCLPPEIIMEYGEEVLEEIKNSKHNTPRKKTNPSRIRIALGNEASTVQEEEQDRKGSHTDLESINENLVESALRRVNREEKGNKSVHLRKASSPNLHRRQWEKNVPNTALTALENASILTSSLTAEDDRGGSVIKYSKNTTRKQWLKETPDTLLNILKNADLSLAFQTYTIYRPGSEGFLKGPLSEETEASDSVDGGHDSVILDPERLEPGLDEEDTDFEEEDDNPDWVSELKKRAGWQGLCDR
Description: Inhibition of NEK3 (unknown origin) at 1 uM relative to control.

The target in experiment [2] is T2, Serine/threonine-protein kinase Nek2 (Homo sapiens) (UniProt P51955).
T2 sequence (whole entry): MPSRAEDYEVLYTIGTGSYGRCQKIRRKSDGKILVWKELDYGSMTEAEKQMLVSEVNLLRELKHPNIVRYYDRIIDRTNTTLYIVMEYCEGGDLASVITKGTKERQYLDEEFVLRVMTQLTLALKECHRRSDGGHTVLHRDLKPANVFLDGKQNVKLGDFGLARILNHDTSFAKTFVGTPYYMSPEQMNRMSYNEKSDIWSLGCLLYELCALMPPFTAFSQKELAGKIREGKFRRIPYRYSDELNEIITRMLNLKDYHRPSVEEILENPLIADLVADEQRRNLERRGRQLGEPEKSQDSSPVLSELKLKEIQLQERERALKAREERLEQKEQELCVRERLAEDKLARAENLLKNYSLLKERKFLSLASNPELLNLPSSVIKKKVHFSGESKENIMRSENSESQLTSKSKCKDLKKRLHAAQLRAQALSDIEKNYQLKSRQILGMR
As to the kind of experiment: Inhibition of NEK2 (unknown origin) at 1 uM relative to control.

Experiment [3] deals with Serine/threonine-protein kinase Nek7 (Homo sapiens) (UniProt Q8TDX7). As to the kind of experiment: Inhibition of NEK7 (unknown origin) at 1 uM relative to control.
Serine/threonine-protein kinase Nek7 (Homo sapiens), sequence (Q8TDX7 whole entry, looked up): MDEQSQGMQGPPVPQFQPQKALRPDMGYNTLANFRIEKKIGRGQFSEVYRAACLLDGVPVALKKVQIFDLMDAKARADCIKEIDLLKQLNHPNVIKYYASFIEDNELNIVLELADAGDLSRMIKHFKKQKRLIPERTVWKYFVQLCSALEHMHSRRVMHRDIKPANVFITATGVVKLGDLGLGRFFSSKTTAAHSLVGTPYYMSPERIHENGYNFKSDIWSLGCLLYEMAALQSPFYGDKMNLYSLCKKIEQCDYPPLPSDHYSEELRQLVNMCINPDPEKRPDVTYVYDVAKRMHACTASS
Experiment [4] concerns the target T3, Serine/threonine-protein kinase Nek9 (Homo sapiens) (UniProt Q8TD19).
T3 sequence (whole entry): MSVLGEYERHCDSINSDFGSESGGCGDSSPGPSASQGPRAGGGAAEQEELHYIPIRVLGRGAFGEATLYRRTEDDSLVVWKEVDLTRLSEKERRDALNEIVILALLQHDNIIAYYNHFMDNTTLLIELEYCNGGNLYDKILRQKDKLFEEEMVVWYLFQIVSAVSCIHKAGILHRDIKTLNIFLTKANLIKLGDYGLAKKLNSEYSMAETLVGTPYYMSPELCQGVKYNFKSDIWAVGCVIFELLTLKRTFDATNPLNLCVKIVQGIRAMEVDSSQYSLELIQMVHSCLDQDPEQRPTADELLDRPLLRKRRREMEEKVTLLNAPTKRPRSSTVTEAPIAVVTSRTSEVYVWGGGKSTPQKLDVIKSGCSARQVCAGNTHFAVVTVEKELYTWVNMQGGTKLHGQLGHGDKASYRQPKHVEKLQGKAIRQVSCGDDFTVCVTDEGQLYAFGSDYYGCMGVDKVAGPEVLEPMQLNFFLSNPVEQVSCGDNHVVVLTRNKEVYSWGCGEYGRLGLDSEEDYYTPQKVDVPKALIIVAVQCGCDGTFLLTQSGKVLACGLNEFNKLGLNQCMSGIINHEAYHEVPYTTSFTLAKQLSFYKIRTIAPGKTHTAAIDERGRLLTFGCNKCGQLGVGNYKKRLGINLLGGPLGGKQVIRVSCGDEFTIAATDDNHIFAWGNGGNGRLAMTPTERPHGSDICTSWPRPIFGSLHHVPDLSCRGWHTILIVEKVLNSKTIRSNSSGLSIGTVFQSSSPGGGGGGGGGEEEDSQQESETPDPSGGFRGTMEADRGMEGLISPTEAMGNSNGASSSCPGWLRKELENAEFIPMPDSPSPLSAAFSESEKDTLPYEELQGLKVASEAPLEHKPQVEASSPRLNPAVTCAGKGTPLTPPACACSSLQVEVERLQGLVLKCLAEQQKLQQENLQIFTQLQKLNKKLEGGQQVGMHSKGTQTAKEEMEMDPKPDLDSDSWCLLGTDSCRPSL
Description: Inhibition of NEK9 (unknown origin) at 1 uM relative to control.

Experiment [5] has as its target T4, Serine/threonine-protein kinase Nek5 (Homo sapiens) (UniProt Q6P3R8).
T4 sequence (whole entry): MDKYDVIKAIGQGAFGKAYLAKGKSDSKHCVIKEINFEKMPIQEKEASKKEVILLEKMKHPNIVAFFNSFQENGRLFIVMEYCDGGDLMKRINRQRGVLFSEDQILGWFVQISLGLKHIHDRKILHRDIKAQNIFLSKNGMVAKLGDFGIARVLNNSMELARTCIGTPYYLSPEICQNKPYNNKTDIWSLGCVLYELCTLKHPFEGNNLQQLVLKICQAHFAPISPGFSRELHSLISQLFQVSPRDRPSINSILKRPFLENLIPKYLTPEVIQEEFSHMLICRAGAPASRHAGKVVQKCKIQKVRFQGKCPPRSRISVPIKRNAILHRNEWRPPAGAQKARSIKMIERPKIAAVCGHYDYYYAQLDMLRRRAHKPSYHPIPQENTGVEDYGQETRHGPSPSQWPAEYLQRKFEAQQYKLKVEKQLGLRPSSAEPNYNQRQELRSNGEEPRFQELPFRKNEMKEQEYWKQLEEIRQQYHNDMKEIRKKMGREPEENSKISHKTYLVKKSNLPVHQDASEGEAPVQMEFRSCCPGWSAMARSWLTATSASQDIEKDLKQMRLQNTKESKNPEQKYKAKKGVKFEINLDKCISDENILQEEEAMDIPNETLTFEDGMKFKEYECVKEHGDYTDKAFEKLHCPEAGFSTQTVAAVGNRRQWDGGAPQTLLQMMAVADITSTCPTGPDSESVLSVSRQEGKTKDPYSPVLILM
Description: Inhibition of NEK5 (unknown origin) at 1 uM relative to control.

Experiment [6] has as its target Serine/threonine-protein kinase Nek6 (Homo sapiens) (UniProt Q9HC98). Description: Inhibition of NEK6 (unknown origin) at 1 uM relative to control.

Serine/threonine-protein kinase Nek6 (Homo sapiens), sequence (Q9HC98 whole entry): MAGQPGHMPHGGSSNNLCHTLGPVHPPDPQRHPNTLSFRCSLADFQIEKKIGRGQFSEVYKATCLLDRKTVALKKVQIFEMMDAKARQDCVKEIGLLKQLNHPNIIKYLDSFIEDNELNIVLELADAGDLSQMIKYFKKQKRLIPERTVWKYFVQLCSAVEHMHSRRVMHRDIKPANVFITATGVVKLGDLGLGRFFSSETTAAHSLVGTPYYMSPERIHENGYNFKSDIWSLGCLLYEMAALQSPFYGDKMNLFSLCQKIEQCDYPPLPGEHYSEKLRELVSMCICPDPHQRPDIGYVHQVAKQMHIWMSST

Usually inhibition stands for how much of the control response was suppressed. On to `COc1ccc(Nc2ncc(C#N)c(Nc3ccccc3C(N)=O)n2)cc1N1CCN(C)CC1`, for which the inhibition in experiment [1] was found to be 6.5%; in experiment [2] it was 0.4%; in experiment [3], 2.6%; in experiment [4] it was 1.8%; in experiment [5], 0%; in experiment [6], 0.1%.
Consider `CC(C)Oc1ccc2c(-c3ccnc(Nc4ccc(N5CCN(C)CC5)cc4)n3)cnn2n1`, for which the inhibition in experiment [1] amounted to 1.5%; in experiment [2], 6.7%; in experiment [3], 7.4%; in experiment [4] it was 7.1%; in experiment [5], 0%; in experiment [6] it was 6.3%.
For `Nc1ncc(-c2cccnc2)c2scc(-c3ccc4c(c3)CCN4C(=O)Cc3ccccc3)c12`, the inhibition amounted to 1% in experiment [1]; 70% in experiment [2]; 19% in experiment [3]; 28% in experiment [4]; 22% in experiment [5]; 8% in experiment [6].
In the case of `COc1cccc(C2=C(Nc3ccc(Cl)c(C(=O)O)c3)C(=O)NC2=O)c1`, the inhibition in experiment [1] worked out at 7%; in experiment [2], 0%; in experiment [3] it was 0%; in experiment [4] it was 0%; in experiment [5], 3%; in experiment [6] it was 0%.
`COc1ccc(C2=C(Nc3cccc(C(=O)O)c3)C(=O)NC2=O)cc1`: the inhibition in experiment [1] stood at 31%; in experiment [2], 10%; in experiment [3] it was 28%; in experiment [4] it was 2%; in experiment [5] it was 0%; in experiment [6], 13%.
As for `COc1cccc(C2=C(Nc3cccc(O)c3)C(=O)NC2=O)c1`, the inhibition in experiment [1] is 19%; in experiment [2], 0%; in experiment [3] it was 7%; in experiment [4], 15%; in experiment [5] it was 2%; in experiment [6], 0%.
On to `Cn1cc(-c2ccc3c(c2)CCN3C(=O)Cc2cc(F)cc(C(F)(F)F)c2)c2c(N)ncnc21`, for which the inhibition in experiment [1] came to 0%; in experiment [2] it was 18%; in experiment [3] it was 0%; in experiment [4], 25%; in experiment [5] it was 0%; in experiment [6], 6%.
`O=S(=O)(c1ccc(-c2ccnc3[nH]ccc23)cc1)N1CCCC1`: the inhibition in experiment [1] worked out at 16%; in experiment [2] it was 16%; in experiment [3], 20%; in experiment [4] it was 28%; in experiment [5], 31%; in experiment [6] it was 0%.
`Cn1cc(-c2cnc(N)c3c(-c4ccc5c(c4)CCN5C(=O)Cc4ccccc4)csc23)cn1`: the inhibition came out at 1% in experiment [1]; 28% in experiment [2]; 0% in experiment [3]; 0% in experiment [4]; 5% in experiment [5]; 0% in experiment [6].
With `Cc1ccccc1CC(=O)N1CCc2cc(-c3cn(C)c4ncnc(N)c34)ccc21`, the inhibition worked out at 0% in experiment [1]; 97% in experiment [2]; 0% in experiment [3]; 0% in experiment [4]; 34% in experiment [5]; 0% in experiment [6].
In the case of `CN(C)CCNS(=O)(=O)c1ccc(-c2ccnc3[nH]ccc23)cc1`, the inhibition in experiment [1] was 0%; in experiment [2] it was 0%; in experiment [3], 0%; in experiment [4], 0%; in experiment [5] it was 1%; in experiment [6], 1%.
As for `Cn1cc(-c2ccc3c(c2)CCN3C(=O)Cc2cc(F)cc(F)c2F)c2c(N)ncnc21`, the inhibition in experiment [1] came out at 0%; in experiment [2], 84%; in experiment [3] it was 0%; in experiment [4], 8%; in experiment [5], 8%; in experiment [6], 18%.
Take `COc1cccc(CC(=O)N2CCc3cc(-c4cn(C)c5ncnc(N)c45)ccc32)c1`: the inhibition turned out to be 4% in experiment [1]; 74% in experiment [2]; 11% in experiment [3]; 25% in experiment [4]; 24% in experiment [5]; 18% in experiment [6].
As for `c1ccc(-c2ccnc3[nH]ccc23)cc1`, the inhibition in experiment [1] came to 19%; in experiment [2], 74%; in experiment [3], 0%; in experiment [4] it was 0%; in experiment [5] it was 8%; in experiment [6], 0%.
For the molecule `Nc1nccc2scc(-c3ccc4c(c3)CCN4C(=O)Cc3ccccc3)c12`, the inhibition was 10% in experiment [1]; 4% in experiment [2]; 0% in experiment [3]; 18% in experiment [4]; 14% in experiment [5]; 0% in experiment [6].
On to `Cn1cc(-c2ccc3c(c2)CCN3C(=O)Cc2ccccc2Cl)c2c(N)ncnc21`, for which the inhibition in experiment [1] was determined as 0%; in experiment [2], 79%; in experiment [3], 17%; in experiment [4] it was 33%; in experiment [5], 7%; in experiment [6] it was 3%.
With `O=c1[nH]ccc2nc(N[C@@H]3CCCNC3)nc(Nc3ccc(S(=O)(=O)N4CCOCC4)cc3)c12`, the inhibition in experiment [1] is 11%; in experiment [2] it was 20%; in experiment [3], 65%; in experiment [4] it was 86%; in experiment [5] it was 49%; in experiment [6] it was 54%.
In the case of `NCCNS(=O)(=O)c1ccc(-c2ccnc3[nH]ccc23)cc1`, the inhibition in experiment [1] worked out at 14%; in experiment [2], 0%; in experiment [3], 0%; in experiment [4], 22%; in experiment [5], 44%; in experiment [6], 4%.
